Source: PMC4114018 (Science signaling, 2013)

Key:
mouse GPR17 (mGPR17) = mouse GPR17 (mGPR17) (Mus musculus, UniProt Q6NS65); assay: label-free DMR and second messenger assays, HEK293 cells; type: cell-based; details: agonist
rat GPR17 (rGPR17) = rat GPR17 (rGPR17) (Rattus norvegicus, UniProt Q09QM4); assay: as above; type: cell-based; details: agonist
rat GPR17 (rGPR17), sequence (Q09QM4 whole entry): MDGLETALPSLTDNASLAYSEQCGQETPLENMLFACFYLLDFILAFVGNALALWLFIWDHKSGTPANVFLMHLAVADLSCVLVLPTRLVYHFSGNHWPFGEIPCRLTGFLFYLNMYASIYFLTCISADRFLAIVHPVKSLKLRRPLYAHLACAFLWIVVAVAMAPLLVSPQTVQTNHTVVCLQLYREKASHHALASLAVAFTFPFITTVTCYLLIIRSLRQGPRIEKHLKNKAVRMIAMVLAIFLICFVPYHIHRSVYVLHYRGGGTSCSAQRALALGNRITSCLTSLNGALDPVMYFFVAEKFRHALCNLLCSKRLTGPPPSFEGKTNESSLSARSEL

mouse GPR17 (mGPR17), sequence (Q6NS65 whole entry): as the sequence (Q09QM4 whole entry) above, with D2N, T6A, A15S, S270A counted along it

With O=C(O)CCc1c(C(=O)O)[nH]c2cc(Cl)cc(Cl)c12 [compound 2, 2-carboxy-4,6-dichloro-1H-indole-3-propionic acid] the EC50 (mouse GPR17 (mGPR17)) was “concentration-dependent activation of rGPR17 and mGPR17 was observed” and the EC50 (rat GPR17 (rGPR17)) was “concentration-dependent activation of rGPR17 and mGPR17 was observed”.
